Legend:
[1] = Dissolution behavior, dialysis diffusion method; assay type: physicochemical; details: 37° C., dialysis bag 3,500 D, 4 h
Experimental: The dissolution behavior of FA-Lipo@Til NCs in Example 3 was measured in different media (water, SGF, and SIF) at 37° C. using the dialysis diffusion method. 1 mL of Til raw material and Til NC preparation (containing 1 mg/mL of Til) were placed in a dialysis bag with a molecular weight cut-off of 3,500 D, which was then placed in 50 mL of dissolution medium and then placed in an oscillator with a frequency of 100 rpm at 37° C. Samples were taken at 1 min, 2 min, 3 min, 5 min, 10 min, 15 min, 30 min, 45 min, 60 min, 90 min, 120 min, 180 min, and 240 min, respectively. After taking the samples, the corresponding volume of medium was supplemented, and the samples were centrifuged (12,000 rpm, 10 min) and determined by HPLC. […] FA-Lipo@Til NCs were released more slowly than Til NCs. At 4 h, approximately 45% (in SGF) and 35% (in SIF) of Til in Lipo@Til NCs and FA-Lipo@Til NCs were released, while the cumulative release from Til NCs exceeded 55% (in SGF) and 65% (in SIF) within 4 h.

[2] = cited from earlier work
Caco-2 cell monolayer = Caco-2 cell monolayer transport; assay type: in vitro ADME; details: Til by HPLC on basolateral side, 50 μg to 100 μg Til
Experimental: The FA-Lipo@Til NCs obtained in Example 3 were tested using a Caco-2 cell culture monolayer model, Caco-2 cells were collected with a cell plating density of 1×10^5 […]. Cells were inoculated on the upper layer of the Transwell plate, 500 μL of diluted cell suspension was added to each well, and 600 μL of blank MEM medium was added to the lower layer, and the plates were placed in an incubator for culture; after 21 days of continuous culture, appropriate cell wells were selected, the upper and lower layers of the Transwell plate were replaced with HBSS balancing solution, and the plates were balanced in the incubator for 30 min. After removing the buffer, different concentrations of FA-Lipo@Til NCs (all diluted to 300 μL with HBSS containing 10% FBS) were added into the well, 100 μL of sample was taken from the lower layer of the Transwell plate at a specific time point, and an equal amount of HBSS buffer was supplemented, and the samples collected at different time points were used to detect the content of Til by HPLC. The cumulative release amount and Papp of the preparation were calculated. […] The transport amount of raw material Til through the monolayer was the lowest, while Til NCs were transported to the basolateral side over time, which was about 3 times that of the former at 4 h. […] FA ligands enhanced the internalization and transport of nanoparticles.

atherosclerotic plaques = experiment: In vivo pharmacodynamic evaluation in atherosclerosis model (ORO, H&E, Masson staining); design: species or system ApoE-/- mice; details: p.o., 4 mg/kg once a day, 12 weeks, Model group 51.53%
Experimental: AS model mice and initial treatment plan: ApoE^-/- mice were fed a high-fat diet for 12 weeks and then randomly divided into 5 groups: Model group (normal saline group); Crude Til group (p.o., 4 mg/kg); Til NCs group (p.o., 4 mg/kg); Lipo@Til NCs group (p.o., 4 mg/kg); FA-Lipo@Til NCs group in Example 3 (p.o., 4 mg/kg). The Control group was replaced by C57BL/6J mice fed with ordinary diet in the same cycle. The drug was administered orally once a day for 12 consecutive weeks, ApoE--mice continued to eat a high-fat diet throughout the treatment, and body weight changes were recorded 2 times a week. After 12 weeks of continuous administration, the mice were fasted but allowed to drink water 12 h before the experiment. Their eyeballs were removed to collect whole blood serum, and then the mice were dissected, their heart was exposed, and a small incision was made in the right atrium, and the whole body was perfused with pre-cooled saline until the outflowing fluid became clear. […]
ORO staining of the entire aorta: fat tissue stained bright red by ORO could interfere with the observation of plaques, such that the fat tissue around the blood vessels needed to be removed with fine forceps under a stereomicroscope. […] After photographing, the images were measured using ImageJ, and the percentage of plaques in the intima area was calculated to correct for differences in body size. […]

[3] = 37° C.; cited from earlier work

acacetin-7-glucoside [Til]
cumulative release of Til in SGF ([1]; SGF): about 4%
cumulative release of Til in SIF ([1]; SIF): about 4%
absolute oral bioavailability [2]: 1.350±0.710%
transport through the Caco-2 cell monolayer (Caco-2 cell monolayer): lowest
average plaque area of the aorta (ORO staining) (atherosclerotic plaques): reduced
solubility in aqueous media [3]: 1.57 µg/mL
